Data set [1] has as its target ErbB2 insYVMA (HER2-YVMA, SEQ ID NO: 2) (Homo sapiens, UniProt P04626, INS775YVMA/P1170A). As to the kind of experiment: biochemical. Conditions: ErbB2 insYVMA enzyme assay.
Data set [2] has as its target ErbB2 WT (Homo sapiens (Human), UniProt P04626). Put plainly: ErbB enzyme assay (CisBio HTRF KinEASE-TK), Assay 2. It counts as biochemical. In a few lines: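 Readout is HTRF KinEASE-TK, using Sa-XL665 and cryptate antibody for 1 h at 22 °C, as percent of control between DMSO-only (100) and pre-quenched (0) reactions. The kinase reaction runs 30 min at 22 °C with 1 mM ATP and 250 nM biotinylated TK substrate, in HEPES pH 7.4 with MgCl2 and 2% DMSO.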

Data set [3] concerns the target EGFR (Homo sapiens (Human), UniProt P00533). Put plainly: ErbB enzyme assay (CisBio HTRF KinEASE-TK), Assay 3. It counts as biochemical. A digest of the protocol:
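First, enzyme was reacted with compound, 1 mM ATP and 250 nM biotinylated tyrosine-kinase peptide for 30 min at 22 °C at pH 7.4. Next, streptavidin-XL665 and cryptate antibody were added for 1 h. Finally, HTRF ratios were converted to POC and fitted to yield IC50.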

The target in data set [4] is ErbB2 with Exon 20 YVMA insertion (HER2-YVMA) (Homo sapiens (Human), UniProt P04626, INS775YVMA). As to the kind of experiment: Cellular phosphorylation assay, constitutive ErbB2 phosphorylation (Y1196) in engineered NIH 3T3 cells, Assay 4. The class given is cell-based. In a few lines:
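In-cell Western in NIH 3T3 cells carrying ErbB2 exon 20 YVMA insertion, with no ligand stimulation. One hour compound exposure at 37 °C before fixation and anti-pY1196 plus GAPDH staining with dual-wavelength fluorescence. IC50 derived after GAPDH normalization.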

The target in data set [5] is EGFR wild type (EGFR WT) (Homo sapiens (Human), UniProt P00533). Put plainly: Cellular phosphorylation assay, EGF-stimulated EGFR phosphorylation in engineered NIH 3T3 cells, Phospho-EGFR DuoSet IC ELISA, Assay 5. The class given is cell-based. A digest of the protocol: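 Phospho-EGFR ELISA on lysates of engineered NIH 3T3 EGFR WT cells, IC50 derived from concentration curves. Cells plated at 20,000/well overnight, given compound dilutions 1 h at 37 °C, then rEGF 100 ng/ml for a further 10 min before lysis.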
Sequence of EGFR wild type (EGFR WT) (P00533 25-1210): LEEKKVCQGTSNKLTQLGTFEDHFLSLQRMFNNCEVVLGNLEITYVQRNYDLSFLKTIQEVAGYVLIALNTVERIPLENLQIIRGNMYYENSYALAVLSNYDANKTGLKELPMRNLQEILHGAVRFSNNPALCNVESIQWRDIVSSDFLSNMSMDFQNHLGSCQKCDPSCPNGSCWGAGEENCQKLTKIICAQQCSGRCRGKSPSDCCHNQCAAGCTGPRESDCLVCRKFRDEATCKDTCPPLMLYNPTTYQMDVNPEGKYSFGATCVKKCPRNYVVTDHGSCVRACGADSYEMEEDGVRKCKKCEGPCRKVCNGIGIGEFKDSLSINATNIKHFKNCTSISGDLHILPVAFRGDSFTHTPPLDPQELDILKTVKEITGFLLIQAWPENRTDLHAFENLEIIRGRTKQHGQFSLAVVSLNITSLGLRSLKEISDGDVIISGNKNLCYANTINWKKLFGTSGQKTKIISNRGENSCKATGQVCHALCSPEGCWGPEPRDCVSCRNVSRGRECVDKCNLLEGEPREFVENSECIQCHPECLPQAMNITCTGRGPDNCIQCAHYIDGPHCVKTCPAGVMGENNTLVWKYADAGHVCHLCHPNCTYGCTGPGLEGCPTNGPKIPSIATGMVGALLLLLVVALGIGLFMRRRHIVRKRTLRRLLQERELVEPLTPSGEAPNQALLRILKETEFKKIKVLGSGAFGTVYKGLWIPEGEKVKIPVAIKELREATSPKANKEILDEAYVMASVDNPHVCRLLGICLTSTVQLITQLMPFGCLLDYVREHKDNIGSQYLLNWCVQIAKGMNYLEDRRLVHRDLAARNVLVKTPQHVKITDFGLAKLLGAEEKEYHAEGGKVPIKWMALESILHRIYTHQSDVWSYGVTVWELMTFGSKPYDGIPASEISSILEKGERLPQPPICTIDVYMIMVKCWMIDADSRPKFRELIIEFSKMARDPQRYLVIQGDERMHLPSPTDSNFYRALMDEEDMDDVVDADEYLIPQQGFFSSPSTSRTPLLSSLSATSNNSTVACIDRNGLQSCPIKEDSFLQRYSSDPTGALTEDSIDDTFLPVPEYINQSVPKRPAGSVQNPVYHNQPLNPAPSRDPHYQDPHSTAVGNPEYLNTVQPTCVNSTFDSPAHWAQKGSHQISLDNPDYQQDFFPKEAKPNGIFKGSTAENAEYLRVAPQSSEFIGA
(ELISA stands for enzyme-linked immunosorbent assay.)

The target in data set [6] is MDR1 (P-gp) (Homo sapiens (Human), UniProt P08183). As to the kind of experiment: MDR1 transfected MDCKII canine Mdr1 knockout permeability/efflux, Assay 7. The settings on record: for efflux ratio at 2 h, 1 μM: dog, MDCK-MDR1.
Sequence of MDR1 (P-gp) (P08183 whole entry): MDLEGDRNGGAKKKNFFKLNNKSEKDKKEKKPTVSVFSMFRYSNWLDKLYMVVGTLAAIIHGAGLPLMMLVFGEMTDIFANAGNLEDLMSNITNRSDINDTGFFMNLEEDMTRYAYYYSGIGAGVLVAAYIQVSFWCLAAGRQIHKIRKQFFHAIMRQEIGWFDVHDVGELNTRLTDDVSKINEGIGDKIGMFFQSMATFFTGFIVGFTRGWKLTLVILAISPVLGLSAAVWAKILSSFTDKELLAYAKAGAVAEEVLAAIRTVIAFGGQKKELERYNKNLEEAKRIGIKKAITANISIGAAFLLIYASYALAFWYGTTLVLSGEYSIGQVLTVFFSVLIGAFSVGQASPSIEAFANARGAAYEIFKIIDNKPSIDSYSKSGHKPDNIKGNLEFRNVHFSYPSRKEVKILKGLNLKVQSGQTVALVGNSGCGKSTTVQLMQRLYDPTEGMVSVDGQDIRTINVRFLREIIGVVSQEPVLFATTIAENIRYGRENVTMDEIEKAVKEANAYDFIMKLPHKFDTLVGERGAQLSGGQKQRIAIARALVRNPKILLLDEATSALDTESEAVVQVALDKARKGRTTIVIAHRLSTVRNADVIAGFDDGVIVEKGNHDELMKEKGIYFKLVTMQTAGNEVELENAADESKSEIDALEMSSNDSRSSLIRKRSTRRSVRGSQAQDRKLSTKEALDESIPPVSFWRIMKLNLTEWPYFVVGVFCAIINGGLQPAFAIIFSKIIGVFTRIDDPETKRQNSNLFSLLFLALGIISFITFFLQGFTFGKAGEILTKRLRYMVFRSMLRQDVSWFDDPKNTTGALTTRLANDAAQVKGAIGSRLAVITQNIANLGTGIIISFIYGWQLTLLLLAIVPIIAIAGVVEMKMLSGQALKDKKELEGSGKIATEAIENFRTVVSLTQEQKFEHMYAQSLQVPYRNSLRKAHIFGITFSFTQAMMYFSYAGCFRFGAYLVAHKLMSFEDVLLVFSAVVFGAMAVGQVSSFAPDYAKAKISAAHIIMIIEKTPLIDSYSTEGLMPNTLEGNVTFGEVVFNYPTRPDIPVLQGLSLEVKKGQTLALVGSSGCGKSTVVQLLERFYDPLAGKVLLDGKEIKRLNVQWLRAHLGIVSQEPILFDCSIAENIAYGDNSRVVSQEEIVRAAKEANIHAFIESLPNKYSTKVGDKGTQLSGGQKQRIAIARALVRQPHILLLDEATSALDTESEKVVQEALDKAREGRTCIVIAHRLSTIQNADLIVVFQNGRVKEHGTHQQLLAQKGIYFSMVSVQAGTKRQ
Method: Both MDR1 transfected LLC-PK1 (Assay 6) and MDR1 transfected MDCKII canine Mdr1 knockout cells (Assay 7) were cultured and plated according to manufacturer's recommendations with the exception that the passage media for the MDR1 transfected LLC-PK1 cell line contained only 2% fetal bovine serum so as to extend passage time out to seven days.
Both positive and negative controls were used to assess functionality of P-gp or BCRP efflux in the assays. Stock solutions for assay controls and the test article were prepared in DMSO for final test concentration of 1 μM. Final organic concentration in the assay was 1%. All dosing solutions contained 10 μM lucifer yellow to monitor MDCKII cell monolayer integrity.
For the apical to basolateral determination (A to B), 75 μL of the test article in transport buffer were added to the apical side of the individual transwells and 250 μL of basolateral media, without compound or lucifer yellow, were added to each well. For the basolateral to apical determination (B to A), 250 μL of test article in transport buffer were added to each well and 75 μL transport buffer, without compound or lucifer yellow, were added to each transwell. All tests were performed in triplicate, and each compound was tested for both apical to basolateral and basolateral to apical transport. The plates were incubated for 2 hours on a Lab-Line Instruments Titer Orbital Shaker (VWR, West Chester, PA) at 50 rpm and 37° C. with 5% CO2. All culture plates were removed from the incubator, 50 μL of media were removed from the apical and basolateral portion of each well, and added to 150 μL of 1 μM labetalol in 2:1 acetonitrile (ACN): H2O, v/v.
The plates were read using a Molecular Devices (Sunnyvale, CA) Gemini Fluorometer to evaluate the lucifer yellow concentrations at excitation/emission wavelengths of 425/535 nm. These values were accepted when found to be below 2% for apical to basolateral and 5% basolateral to apical flux across the MDR1-transfected LLC-PK1 or BCRP-transfected MDCKII cell monolayers. The plates were sealed, and the contents of each well analyzed by LC MS/MS. The compound concentrations were determined from the ratio of the peak areas of the compound to the internal standard (labetalol) in comparison to the dosing solution.
A MDS Sciex API 4000 (Applied Biosystems, Foster City, CA) mass spectrometer was used for detection of the analytes in the ion spray positive mode. Analyte responses were measured by multiple reaction monitoring (“MRM”) of transitions unique to each compound (the protonated precursor ion and selected product ions for each test article and m/z 329 to m/z 162 for labetalol, the internal standard.
The total run time, including re-equilibration, for a single injection was 1.2 minutes. […] The total run time, including re-equilibration, for a single injection was 0.61 minutes.
An efflux ratio is calculated from the mean apical to basolateral (A-B) Papp data and basolateral to apical (B-A) Papp data: Efflux ratio=Papp(B−A)/Papp(A−B)
Data set [7] deals with BCRP (Homo sapiens (Human), UniProt Q9UNQ0). As to the kind of experiment: BCRP transfected MDCKII canine Mdr1 knockout permeability/efflux, Assay 9. Conditions: for efflux ratio at 2 h, 1 μM: dog.
Sequence of BCRP (Q9UNQ0 whole entry): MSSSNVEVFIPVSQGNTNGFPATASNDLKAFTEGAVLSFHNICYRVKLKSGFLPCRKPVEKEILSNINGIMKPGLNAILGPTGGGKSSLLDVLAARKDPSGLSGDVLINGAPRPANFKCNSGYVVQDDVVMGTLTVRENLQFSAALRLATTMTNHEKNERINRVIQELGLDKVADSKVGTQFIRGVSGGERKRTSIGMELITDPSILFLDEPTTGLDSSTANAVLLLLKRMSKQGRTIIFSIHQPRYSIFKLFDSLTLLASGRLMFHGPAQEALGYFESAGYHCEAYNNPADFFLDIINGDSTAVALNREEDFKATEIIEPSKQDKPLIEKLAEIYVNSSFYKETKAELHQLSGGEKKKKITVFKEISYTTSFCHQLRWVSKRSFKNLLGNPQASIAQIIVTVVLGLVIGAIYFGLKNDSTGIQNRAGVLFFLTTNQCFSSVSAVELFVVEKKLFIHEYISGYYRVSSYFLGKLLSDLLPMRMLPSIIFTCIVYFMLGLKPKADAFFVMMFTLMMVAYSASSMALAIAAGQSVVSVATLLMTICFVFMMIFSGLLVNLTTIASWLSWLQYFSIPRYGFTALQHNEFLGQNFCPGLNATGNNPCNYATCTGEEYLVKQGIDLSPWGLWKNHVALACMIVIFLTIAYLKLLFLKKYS
[8] abbreviates: Assay 9 Pe Ratio, efflux ratio Papp(B-A)/Papp(A-B), BCRP transfected MDCKII canine Mdr1 knockout.

Where two headings read alike, the source gives them in different places.

Sequence of ErbB2 WT (P04626 23-1255): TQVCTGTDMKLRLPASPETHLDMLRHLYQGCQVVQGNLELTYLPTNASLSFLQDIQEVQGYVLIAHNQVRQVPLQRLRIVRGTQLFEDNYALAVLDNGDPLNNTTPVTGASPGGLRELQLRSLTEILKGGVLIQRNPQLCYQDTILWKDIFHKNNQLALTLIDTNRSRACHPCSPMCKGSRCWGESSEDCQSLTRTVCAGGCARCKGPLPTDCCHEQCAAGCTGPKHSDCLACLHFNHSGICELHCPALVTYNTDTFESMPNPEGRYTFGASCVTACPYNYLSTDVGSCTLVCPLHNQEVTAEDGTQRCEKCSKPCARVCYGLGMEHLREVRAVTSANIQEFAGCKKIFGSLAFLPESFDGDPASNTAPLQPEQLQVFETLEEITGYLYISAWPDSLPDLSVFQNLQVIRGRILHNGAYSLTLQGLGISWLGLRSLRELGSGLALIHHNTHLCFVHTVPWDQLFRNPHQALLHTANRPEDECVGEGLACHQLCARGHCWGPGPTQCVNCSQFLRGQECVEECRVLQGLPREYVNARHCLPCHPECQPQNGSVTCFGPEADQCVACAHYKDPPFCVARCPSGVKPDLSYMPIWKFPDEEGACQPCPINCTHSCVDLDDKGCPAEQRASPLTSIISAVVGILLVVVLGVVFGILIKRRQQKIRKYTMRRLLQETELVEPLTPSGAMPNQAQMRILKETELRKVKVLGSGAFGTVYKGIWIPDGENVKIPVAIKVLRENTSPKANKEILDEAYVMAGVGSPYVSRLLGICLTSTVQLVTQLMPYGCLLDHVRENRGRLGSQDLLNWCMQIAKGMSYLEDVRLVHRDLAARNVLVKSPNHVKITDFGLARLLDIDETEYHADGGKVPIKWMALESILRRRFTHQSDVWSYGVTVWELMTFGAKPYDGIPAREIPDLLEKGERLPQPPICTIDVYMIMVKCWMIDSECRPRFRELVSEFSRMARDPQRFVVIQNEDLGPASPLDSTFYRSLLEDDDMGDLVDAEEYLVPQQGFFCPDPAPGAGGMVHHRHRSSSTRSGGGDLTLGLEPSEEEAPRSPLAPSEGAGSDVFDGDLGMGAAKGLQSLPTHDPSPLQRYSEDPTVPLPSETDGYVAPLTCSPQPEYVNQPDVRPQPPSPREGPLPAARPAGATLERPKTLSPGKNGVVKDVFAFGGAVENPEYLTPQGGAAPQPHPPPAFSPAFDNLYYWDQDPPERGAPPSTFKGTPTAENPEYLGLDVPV

In general, IC50 refers to the concentration that gives 50% inhibition. A word on the efflux ratio: it is a quotient of directional permeabilities that is used to spot active efflux. As for `Clc1cc(Nc2ncnc3cnc(N4CCC45COC5)nc23)ccc1Oc1ccn2ncnc2c1` [Example 132, N-(4-([1,2,4]triazolo[1,5-a]pyridin-7-yloxy)-3-chlorophenyl)-6-(6-oxa-1-azaspiro[3.3]heptan-1-yl)pyrimido[5,4-d]pyrimidin-4-amine], the concentration for half-maximal inhibition (IC50) was 5.8 nM in data set [1] (read-out: Assay 1 IC50); 5.6 nM in data set [2]; 0.801 µM in data set [3]; 19.9 nM in data set [4]; at least 5 µM in data set [5]. Also, the results for the efflux ratio at 2 h, 1 μM in data set [6] and in data set [7] were 1.1 and 1.8, respectively.

`Cn1cnc2cc(Oc3ccc(Nc4ncnc5cnc(N6CCC67COC7)nc45)cc3Cl)ccc21.O=C(O)C(F)(F)F` [Example 145, N-(3-chloro-4-((1-methyl-1H-benzo[d]imidazol-5-yl)oxy)phenyl)-6-(6-oxa-1-azaspiro[3.3]heptan-1-yl)pyrimido[5,4-d]pyrimidin-4-amine]: the IC50 in data set [1] (Assay 1 IC50 (nM)) was 19.3 nM; in data set [2], 19.6 nM; in data set [3], 0.896 µM; in data set [4] it was 20.2 nM; in data set [5], at least 5 µM. Besides, the efflux ratio at 2 h, 1 μM in data set [6] is 0.7; in data set [7], 2.1.

As to `Cn1cnc2cc(Oc3ccc(Nc4ncnc5cnc(N6CCN[C@@H](C(F)(F)F)C6)nc45)cc3Cl)ccc21.O=C(O)C(F)(F)F` [Example 146, (R)—N-(3-chloro-4-((1-methyl-1H-benzo[d]imidazol-5-yl)oxy)phenyl)-6-(3-(trifluoromethyl)piperazin-1-yl)pyrimido[5,4-d]pyrimidin-4-amine 2,2,2-trifluoroacetate], the IC50 was 54.1 nM in data set [1] (Assay 1 IC50 (nM)); 58.2 nM in data set [2]; 3.72 µM in data set [3]; 35.5 nM in data set [4]; at least 5 µM in data set [5]. For the same molecule, the efflux ratio at 2 h, 1 μM in data set [6] worked out at 0.8; in data set [7], 5.1.

Consider `Cc1c(Oc2ccc3c(c2)ncn3C)ccc(Nc2ncnc3cnc(N4CCC[C@](C)(O)C4)nc23)c1F` [Example 147, (S)-1-(8-((2-fluoro-3-methyl-4-((1-methyl-1H-benzo[d]imidazol-5-yl)oxy)phenyl)amino)pyrimido[5,4-d]pyrimidin-2-yl)-3-methylpiperidin-3-ol], for which the IC50 is 74.2 nM in data set [1] (read-out: Assay 1 IC50); 45.5 nM in data set [2]; 2.65 µM in data set [3]; 32.6 nM in data set [4]; at least 5 µM in data set [5]. For the same molecule, the efflux ratio at 2 h, 1 μM in data set [6] turned out to be 1; in data set [7] (setting [8]) it was 2.7.

`Cc1cc(Nc2ncnc3cnc(N(C)C4CCOCC4)nc23)ccc1Oc1ccc2c(c1)ncn2C` [Example 153, N2-methyl-N8-(3-methyl-4-((1-methyl-1H-benzo[d]imidazol-5-yl)oxy)phenyl)-N2-(tetrahydro-2H-pyran-4-yl)pyrimido[5,4-d]pyrimidine-2,8-diamine]: the half-maximal inhibitory concentration (IC50) in data set [1] (read-out: Assay 1 IC50) is 7.6 nM; in data set [2] it was 16.3 nM; in data set [3] it was 5.55 µM; in data set [4], 25 nM; in data set [5] it was at least 5 µM. Also, the efflux ratio at 2 h, 1 μM in data set [6] came out at 1.5; in data set [7] (setting [8]), 1.4.

Consider `Cc1cc(Nc2ncnc3cnc(N4CC[C@@](C)(O)C4)nc23)ccc1Oc1ccc2c(c1)ncn2C` [Example 154, (R)-3-methyl-1-(8-((3-methyl-4-((1-methyl-1H-benzo[d]imidazol-5-yl)oxy)phenyl)amino)pyrimido[5,4-d]pyrimidin-2-yl)pyrrolidin-3-ol], for which the IC50 in data set [1] (read-out: Assay 1 IC50) was 10.3 nM; in data set [2], 8 nM; in data set [3], 1.94 µM; in data set [4], 15.7 nM; in data set [5], at least 5 µM. Also, the efflux ratio at 2 h, 1 μM in data set [6] came out at 2.1; in data set [7] (setting [8]) it was 34.

For `Cc1cc(Nc2ncnc3cnc(N4CC5(C4)CC(C)(O)C5)nc23)ccc1Oc1ccc2c(c1)ncn2C` [Example 156, 6-methyl-2-(8-((3-methyl-4-((1-methyl-1H-benzo[d]imidazol-5-yl)oxy)phenyl)amino)pyrimido[5,4-d]pyrimidin-2-yl)-2-azaspiro[3.3]heptan-6-ol], the IC50 in data set [1] (read-out: Assay 1 IC50) was 6.4 nM; in data set [2] it was 5.2 nM; in data set [3] it was at least 10 µM; in data set [4], 12.3 nM; in data set [5], at least 5 µM. The efflux ratio at 2 h, 1 μM was 2 in data set [6] and 26 in data set [7].

As for `Cc1cc(Nc2ncnc3cnc(N4C[C@H]5C[C@@H]4C[C@@H]5O)nc23)ccc1Oc1ccc2c(c1)ncn2C` [Example 157, (1R,4R,5S)-2-(8-((3-methyl-4-((1-methyl-1H-benzo[d]imidazol-5-yl)oxy)phenyl)amino)pyrimido[5,4-d]pyrimidin-2-yl)-2-azabicyclo[2.2.1]heptan-5-ol], the IC50 in data set [1] (read-out: Assay 1 IC50) is 33.5 nM; in data set [2] it was 56.8 nM; in data set [3], at least 10 µM; in data set [4], 27.8 nM; in data set [5], at least 5 µM. The “Assay 7 Pe Ratio” value in data set [6] (efflux ratio Papp(B-A)/Papp(A-B), MDR1 transfected MDCKII canine Mdr1 knockout) amounted to 2.1. Besides, the “Assay 9 Pe Ratio” value in data set [7] (efflux ratio Papp(B-A)/Papp(A-B), BCRP transfected MDCKII canine Mdr1 knockout) is 21.0.

As for `Cc1cc(Nc2ncnc3cnc(N4CC5CC5(O)C4)nc23)ccc1Oc1ccc2c(c1)ncn2C` (stereo not drawn) [Example 158, 3-(8-((3-methyl-4-((1-methyl-1H-benzo[d]imidazol-5-yl)oxy)phenyl)amino)pyrimido[5,4-d]pyrimidin-2-yl)-3-azabicyclo[3.1.0]hexan-1-ol], the IC50 in data set [1] (read-out: Assay 1 IC50) was 29.4 nM; in data set [2], 58.2 nM; in data set [3], at least 10 µM; in data set [4], 9.8 nM; in data set [5] it was at least 5 µM. Moreover, the efflux ratio at 2 h, 1 μM in data set [6] was 1.9; in data set [7] (setting [8]), 33.8.

Take `Cc1cc(Nc2ncnc3cnc(N4CCN(C5COC5)CC4)nc23)ccc1Oc1ccc2c(c1)ncn2C` [Example 159, N-(3-methyl-4-((1-methyl-1H-benzo[d]imidazol-5-yl)oxy)phenyl)-6-(4-(oxetan-3-yl)piperazin-1-yl)pyrimido[5,4-d]pyrimidin-4-amine]: the IC50 in data set [1] (read-out: Assay 1 IC50) is 28.7 nM; in data set [2], 40.7 nM; in data set [3], 7.37 µM; in data set [4], 17 nM; in data set [5] it was at least 5 µM. The efflux ratio at 2 h, 1 μM in data set [6] is 2.1; in data set [7] (setting [8]) it was 9.6.

Turning to `Cc1cc(Nc2ncnc3cnc(N4CCC(O)(C(F)F)CC4)nc23)ccc1Oc1ccc2c(c1)ncn2C` [Example 168, 4-(difluoromethyl)-1-(8-((3-methyl-4-((1-methyl-1H-benzo[d]imidazol-5-yl)oxy)phenyl)amino)pyrimido[5,4-d]pyrimidin-2-yl)piperidin-4-ol], the IC50 in data set [1] (read-out: Assay 1 IC50) is 39.1 nM; in data set [2], 113 nM; in data set [3], 3.68 µM; in data set [4], 6.5 nM; in data set [5], at least 5 µM. In addition, the efflux ratio at 2 h, 1 μM came to 2 in data set [6] and 16.7 in data set [7] (setting [8]).

With `Cc1cc(Nc2ncnc3cnc(N4C[C@H](O)C(F)(F)C4)nc23)ccc1Oc1ccc2c(c1)ncn2C` [Example 170, (S)-4,4-difluoro-1-(8-((3-methyl-4-((1-methyl-1H-benzo[d]imidazol-5-yl)oxy)phenyl)amino)pyrimido[5,4-d]pyrimidin-2-yl)pyrrolidin-3-ol], the IC50 in data set [1] (read-out: Assay 1 IC50) is 20.1 nM; in data set [2], 28.6 nM; in data set [3], at least 10 µM; in data set [4], 3.4 nM; in data set [5] it was at least 5 µM. The efflux ratio at 2 h, 1 μM in data set [6] was 2.1; in data set [7] (setting [8]) it was 36.

(Values after patent publication US11834453B2, “Substituted pyrimido[5,4-d]pyrimidines as HER2 inhibitors” (Array BioPharma Inc., priority 2020, dated 2023).)
